Measured values as given in patent publication US11884708B2, “Stapled peptide inhibitors of nemo as potential anti-inflammatory and anti-cancer drugs” (INSTITUT PASTEUR, priority 2015, dated 2024).
Where a SMILES comes first, the peptide text is derived from it. Bridges are numbered along the chain shown (N, C = ends). [ ]: non-standard residue; d: D form. The star is where a group is joined. Succinimide(1-Et,3-yl) = CCN1C(=O)CC(*)C1=O; R8 = C=CCCCCCC[C@@](C)(N)C(=O)O; S5 = C=CCCC[C@](C)(N)C(=O)O; code Z = not defined here; Cbz = O=C(OCc1ccccc1)*; Aib = CC(C)(N)C(=O)O; CH2F = FC*

Experiments:
OCI-Ly3 DLBCL cells = assay: Protection from cell death induced by NEMO stapled inhibitor by apoptosis and necroptosis inhibitors; type: cell-based, human; conditions: OCY-Ly3 pre-treated with inhibitor, then A-UBI-SAHND306-Q313
Procedure: Ferrostatin-1, an inhibitor of ferroptosis (Sigma Aldrich) was used at 25 μM, the mixture of pepstatin-A and E64D (Sigma Aldrich), inhibitors of lysosomal cathepin D and cathepsin B, respectively, at 25 μM each and Cyclosporin A (Sigma Aldrich), a CypD inhibitor, at 25 μM. In all experiments, the effect of different DMSO concentration on cell viability was measured and taken into account, and fluorescence background was measured using cell free medium containing inhibitors.

circular dichroism = conditions: 10 mM sodium phosphate; pH 7; 1 °C; 50 uM
[1] = system: HLY1 (ABC-DLBCL, MALT1 independent); assay: Cell death assay (CellTiter-Blue resazurin); type: cell-based, human; conditions: for cell death: HLY1, 7 h; for EC50: Homo sapiens
Procedure: (§1) The CellTiter-Blue® Cell Viability kit assay purchased from Promega was used to assess the cell death induced by NEMO stapled peptides in ABC- and GCB-DLBCL cell lines. […] Cells were considered 100% death when the fluorescence intensity value was the same as the one with the medium alone or with the cells treated with the cycloheximide protein synthesis inhibitor at 25 μM (Sigma Aldrich).
(§2) For each time point measurement 100 μl of cell samples were withdrawn at different incubation times (7 h, 24 h and 48 h) and subjected to resazurin assay for one hour at 37° C. in the CO2 incubator by adding and mixing for 10 sec 20 μl of resazurin. Fluorescence measurements were performed with a TECAN infinite F500 instrument at 560 nm excitation wavelength and 590 nm emission wavelength. Viability of cells at time 0 was determined just before adding compound and all experiments were performed in duplicate.
(§3) The percentage of cell death was calculated according to the following formula: (1−((RFUobs−blank)/(RFU100% viability−blank))*100), where RFUobs corresponds to the cells viability observed in the presence of compound, RFU100% viability, the initial cells viability and blank the background fluorescence measured using the medium alone.
(§4) The EC50 value was calculated by plotting the percentage of cell death as function of the compound concentration and fitting the experimental curve with the following formula: (A*P0)/(EC50+P0), where A is the amplitude of fluorescence, P0 is the peptide concentration.
(§5) To compare the inhibition efficiency of BA-UBI-SAHND306-Q313 with IKK inhibitors (MLN120B, MedChem Express) or IKKα/β inhibitor (TPCA1, R&D systems), 25,000 DLBCL cells (OCI-Ly3) were incubated for 7 h with an increasing concentration of IKK inhibitors ranging from 0 to 50 μM, and the amount of cell death was then determined using CellTiter-Blue® Cell Viability kit assay. For the MI-2 MALT1 inhibitor (Fontan et al., 2012, Cancer cell 22, 812-824), similar experiments were carried out in MALT dependent (OCI-Ly3) and independent (HLY1) DLBCL cells using a 0-25 μM range.

[2] = system: OCI-Ly3 (ABC-DLBCL, MALT1 dependent); assay: Cell death assay (CellTiter-Blue resazurin); type: cell-based, human
Procedure: as §1, §2, §3, §4, §5

70Z3-C3 cells = assay: Cellular uptake of BODIPY-labeled peptides by FACS; type: cell-based; conditions: 2 h incubation, flow cytometry
OCI-Ly7 (GCB-DLBCL) = assay: Cell death assay (CellTiter-Blue resazurin); type: cell-based, human; conditions: OCY-Ly7, no constitutive NF-κB activation
Procedure: as §1, §2
as §3, with “alone. […]” for “alone.”

For `COC(=O)C[C@H](NC(=O)[C@H](C)NC(=O)[C@@H](NC(=O)OCc1ccccc1)C(C)C)C(=O)CF` [Z-VAD-fmk] (Cbz-Val-Ala-Asp(OMe)-CH2F), the “protection to cell death induced by NEMO stapled inhibitor, in words” value (OCI-Ly3 DLBCL cells) was “did not provide any protection”.

For `CC(C)S(=O)(=O)c1ccc2nccc(Nc3ccc4scnc4c3)c2c1` [GSK872], the “protection to cell death induced by NEMO stapled inhibitor, in words” value (OCI-Ly3 DLBCL cells) was “significantly rescued”.

For `CN1C(=O)C(Cc2c[nH]c3ccccc23)NC1=S` (stereo not shown) [Nec1, necrostatin-1], the “protection to cell death induced by NEMO stapled inhibitor, in words” value (OCI-Ly3 DLBCL cells) was “totally prevent”.

`CC[C@H](C)[C@@H]1NC(=O)[C@@](C)(NC(=O)[C@H](C)NC(=O)[C@H](CCC(N)=O)NC(=O)[C@H](C)NC(=O)[C@H](CCCCN)NC(=O)[C@H](CC(C)C)NC(=O)[C@H](CSC2CC(=O)N(CC)C2=O)NC(C)=O)CCCC=CCCC[C@@](C)(C(=O)N[C@@H](CCCNC(=N)N)C(=O)N[C@@H](Cc2ccccc2)C(=O)N[C@@H](CCC(N)=O)C(=O)N[C@@H](C)C(=O)N[C@@H](CCC(=O)O)C(=O)N[C@@H](CCCNC(=N)N)C(=O)N[C@@H](Cc2c[nH]cn2)C(=O)N[C@@H](C)C(=O)N[C@@H](CCCNC(=N)N)C(=O)N[C@@H](CCC(=O)O)C(=O)N[C@@H](CCCCN)C(N)=O)NC(=O)[C@H](CCCCN)NC(=O)[C@H](Cc2ccc(O)cc2)NC1=O` (stereo partly shown) (Ac-C(Succinimide(1-Et,3-yl))LKAQA[S5]IYK[S5]RFQAERHAREK-NH2; staple 7-11) showed a helicity (circular dichroism) of 65 rel %.

In the case of `CC[C@H](C)[C@H](NC(=O)[C@H](CC(=O)O)NC(=O)C(C)(C)NC(=O)[C@H](CCC(N)=O)NC(=O)C(C)(C)NC(=O)[C@H](CCCCN)NC(=O)[C@H](CC(C)C)NC(=O)[C@H](CSC1CC(=O)N(CC)C1=O)NC(C)=O)C(=O)N[C@@H](Cc1ccc(O)cc1)C(=O)N[C@@H](CCCCN)C(=O)NC(C)(C)C(=O)N[C@@H](CCCNC(=N)N)C(=O)N[C@@H](Cc1ccccc1)C(=O)N[C@@H](CCC(N)=O)C(=O)NC(C)(C)C(=O)N[C@@H](CCC(=O)O)C(=O)N[C@@H](CCCNC(=N)N)C(=O)N[C@@H](Cc1c[nH]cn1)C(=O)NC(C)(C)C(=O)N[C@@H](CCCNC(=N)N)C(=O)N[C@@H](CCC(=O)O)C(=O)N[C@@H](CCCCN)C(N)=O` (stereo partly shown) (Ac-C(Succinimide(1-Et,3-yl))LK[Aib]Q[Aib]DIYK[Aib]RFQ[Aib]ERH[Aib]REK-NH2), the helicity (circular dichroism) is reported as 49 rel %.

With `CC[C@H](C)[C@@H]1NC(=O)[C@H](CC(=O)O)NC(=O)[C@H](C)NC(=O)[C@H](CCC(N)=O)NC(=O)[C@](C)(NC(=O)[C@H](CCCCN)NC(=O)[C@H](CC(C)C)NC(=O)[C@H](CSC2CC(=O)N(CC)C2=O)NC(C)=O)CCCCCC/C=C\CCC[C@@](C)(C(=O)N[C@@H](CCCNC(=N)N)C(=O)N[C@@H](Cc2ccccc2)C(=O)N[C@@H](CCC(N)=O)C(=O)N[C@@H](C)C(=O)N[C@@H](CCC(=O)O)C(=O)N[C@@H](CCCNC(=N)N)C(=O)N[C@@H](Cc2c[nH]cn2)C(=O)N[C@@H](C)C(=O)N[C@@H](CCCNC(=N)N)C(=O)N[C@@H](CCC(=O)O)C(=O)N[C@@H](CCCCN)C(N)=O)NC(=O)[C@H](CCCCN)NC(=O)[C@H](Cc2ccc(O)cc2)NC1=O` (stereo partly shown) (Ac-C(Succinimide(1-Et,3-yl))LK[R8]QADIYK[S5]RFQAERHAREK-NH2; staple (Z) 4-11) the helicity (circular dichroism) was 63 rel %.

For `COc1c(Cl)cc2c([nH]c3cnccc32)c1NC(=O)c1cccnc1C` [MLN120B], the cell death [1] was “No cell death”, the EC50 ([1]; HLY1, 24 h) was 70 ± 2 µM and the EC50 ([1]; HLY1, 48 h) was 78 ± 2 µM. It also gave an EC50 ([2]; Homo sapiens, OCI-Ly3, 48 h) of 125 ± 10 µM and a cell death ([2]; OCI-Ly3, 48 h) of 52%.

Molecule `CC[C@H](C)[C@@H]1NC(=O)[C@H](CC(=O)O)NC(=O)[C@H](C)NC(=O)[C@H](CCC(N)=O)NC(=O)[C@](C)(NC(=O)[C@H](CCCCN)NC(=O)[C@H](CC(C)C)NC(=O)[C@H](CSC2CC(=O)N(CC)C2=O)NC(C)=O)CCCCCC/C=C/CCC[C@@](C)(C(=O)N[C@@H](CCCNC(=N)N)C(=O)N[C@@H](Cc2ccccc2)C(=O)N[C@@H](CCC(N)=O)C(=O)N[C@@H](C)C(=O)N[C@@H](CCC(=O)O)C(=O)N[C@@H](CCCNC(=N)N)C(=O)N[C@@H](Cc2c[nH]cn2)C(=O)N[C@@H](C)C(=O)N[C@@H](CCCNC(=N)N)C(=O)N[C@@H](CCC(=O)O)C(=O)N[C@@H](CCCCN)C(N)=O)NC(=O)[C@H](CCCCN)NC(=O)[C@H](Cc2ccc(O)cc2)NC1=O` (stereo partly shown) (Ac-C(Succinimide(1-Et,3-yl))LK[R8]QADIYK[S5]RFQAERHAREK-NH2; staple (E) 4-11) has a helicity (circular dichroism) of 80 rel %.

With `COCCOc1nc(-c2ccc(Cl)c(Cl)c2)n(-c2ccc(NC(=O)CCl)cc2)n1` [MI-2] the cell death [1] was “more resistant” and the EC50 ([2]; OCI-Ly3, 7 h) was 2.5 ± 0.05 µM.

For `COc1nccnc1NS(=O)(=O)c1ccc(NC(=O)/C=C/c2ccc([N+](=O)[O-])s2)cc1` [NSA, necrosulfonamide], the “protection to cell death induced by NEMO stapled inhibitor, in words” value (OCI-Ly3 DLBCL cells) was “significantly rescued”.

For `CC[C@H](C)[C@H](NC(=O)[C@H](CC(=O)O)NC(=O)[C@H](C)NC(=O)[C@H](CCC(N)=O)NC(=O)[C@H](C)NC(=O)[C@H](CCCCN)NC(=O)[C@H](CC(C)C)NC(=O)[C@H](CSC1CC(=O)N(CC)C1=O)NC(C)=O)C(=O)N[C@@H](Cc1ccc(O)cc1)C(=O)N[C@@H](CCCCN)C(=O)N[C@@H](C)C(=O)N[C@@H](CCCNC(=N)N)C(=O)N[C@@H](Cc1ccccc1)C(=O)N[C@@H](CCC(N)=O)C(=O)N[C@@H](C)C(=O)N[C@@H](CCC(=O)O)C(=O)N[C@@H](CCCNC(=N)N)C(=O)N[C@@H](Cc1c[nH]cn1)C(=O)N[C@@H](C)C(=O)N[C@@H](CCCNC(=N)N)C(=O)N[C@@H](CCC(=O)O)C(=O)N[C@@H](CCCCN)C(N)=O` (stereo partly shown) (Ac-C(Succinimide(1-Et,3-yl))LKAQADIYKARFQAERHAREK-NH2), the helicity (circular dichroism) was 42 rel %.

For `CC[C@H](C)[C@H](NC(=O)[C@H](CCCCN)NC(=O)[C@@H](NC(=O)[C@H](CCC(N)=O)NC(=O)[C@H](CCCNC(=N)N)NC(=O)[C@H](CSC1CC(=O)N(CC)C1=O)NC(C)=O)[C@@H](C)CC)C(=O)N[C@@H](Cc1c[nH]c2ccccc12)C(=O)N[C@@H](Cc1ccccc1)C(=O)N[C@@H](CCC(N)=O)C(=O)N[C@@H](CC(N)=O)C(=O)N[C@@H](CCCNC(=N)N)C(=O)N[C@@H](CCCNC(=N)N)C(=O)N[C@@H](CCSC)C(=O)N[C@@H](CCCCN)C(=O)N[C@@H](Cc1c[nH]c2ccccc12)C(=O)N[C@@H](CCCCN)C(=O)N[C@@H](CCCCN)C(=O)N[C@@H](CC(C)C)C(=O)N[C@@H](CCCCN)C(=O)N[C@@H](C)C(=O)N[C@@H](CCC(N)=O)C(=O)N[C@@H](C)C(=O)N[C@]1(C)CCCCCCC=CCCC[C@@](C)(C(=O)N[C@@H](C)C(=O)N[C@@H](CCC(=O)O)C(=O)N[C@@H](CCCNC(=N)N)C(=O)N[C@@H](Cc2c[nH]cn2)C(=O)N[C@@H](C)C(=O)N[C@@H](CCCNC(=N)N)C(=O)N[C@@H](CCC(=O)O)C(=O)N[C@@H](CCCCN)C(N)=O)NC(=O)[C@H](Cc2ccccc2)NC(=O)[C@H](CCCNC(=N)N)NC(=O)[C@H](C)NC(=O)[C@H](CCCCN)NC(=O)[C@H](Cc2ccc(O)cc2)NC(=O)[C@H]([C@@H](C)CC)NC1=O` (stereo partly shown) [A-UBI-SAHN D306-Q313] (Ac-C(Succinimide(1-Et,3-yl))RQIKIWFQNRRMKWKKLKAQA[R8]IYKARF[S5]AERHAREK-NH2; staple 23-30), the “intracellular delivery at 4° C. lower than at 37° C.” value (70Z3-C3 cells) was 58%, the “more potent than ML120B” value ([1]; HLY1) was 70 × and the cell death [1] was 100%. For the same molecule, the “times more potent than ML120B IKKβ inhibitor” value ([2]; OCI-Ly3) was “about 50 times”, the EC50 ([2]; OCI-Ly3, 7 h) was 2.6 ± 0.5 µM and the cell death ([2]; OCI-Ly3, 7 h) was 100%. The “cell death, in words” value (OCI-Ly7 (GCB-DLBCL)) was “no cell death”.

With “Z-Val-Arg-Pro-Arg-fluoromethylketone ({code Z}-VRPR-CH2F; reading uncertain; also: printed as Z-Val-Arg-Pro-Arg-fluoromethylketone) [Z-VRPR-fmk]” the “cell death, in words” value ([1]; HLY1, for at least 48 h) was “did not induce any cell death” and the cell death ([2]; OCI-Ly3, 48 h) was “very little cell death”.
